Like-named read-outs stand apart in the source and are kept apart here.
What was measured:
[1] = Pharmacokinetic studies in portal/jugular vein cannulated rats after oral administration; type: in vivo, male Spraque-Dawley rats; details: for AUC: male, Sprague-Dawley, rat, 5 mg/kg oral dose of prodrug
Description: Pharamcokinetic studies were conducted in rats containing surgically implanted cannula in the portal and jugular veins. Blood samples were taken simultaneously from both cannula at various times after oral administration of the compounds. In the portal vein, the prodrugs are detected and, in some cases, the active compound, A-B—C—NHCOCHX2, has also been detected. The presence of active compound in the portal vein samples has been attributed to metabolism of the prodrug in transit through the gut wall. […] In the jugular samples, many, but not all, of the prodrugs have been detected in systemic circulation, depending on the hepatic extraction ratio of the prodrug.
Compounds were dissolved in a mixture of TPGS:PEG:PG (35%:60%:5%) and diluted with saline for oral administration. Typically, 6.5 mg of compound was dissolved in 1 ml of the organic mixture and added to 5.5 ml of saline. Animals were dosed with 5 ml/kg of this mixture to give a typical dose of 5 mg/kg. All animal studies were conducted in male Spraque-Dawley rats and the animals were fasted overnight prior to dose administration. Surgeries (to implant blood sampling cannula) were conducted at least two days prior to the study. Blood samples (100 μl) were collected using sodium heparin as anticoagulant and added to 300 μl of a mixture of acetate buffer (100 mM, pH=6.5):acetonitrile:ethanol:DMSO (2:1:1:2 v/v). Samples were centrifuged and the supernatant was analyzed by LC/MS/MS using the procedures outlined above. Standards were prepared similarly using fresh rat blood from naive animals.
No. 66 and Cpd. No. 64 (Table 3). […] Because the portal blood flows directly to the liver, the intact active parent compound may exert an anti-viral effect in the liver.

[2] = tested on: HCV replicon in 5-2 Luc replicon-comprising cells; assay: HCV replicon assay, luciferase readout (HEPC_REPLICON-LUC); type: cell-based; details: Hepatitis C virus, read-out: HEPC_REPLICON-LUC Result Value (IC50)
Source text: In one embodiment, the inhibitory activity of the metabolically active agent of the prodrug can be confirmed in a replicon assay that assesses the ability of a test compound to block or inhibit HCV replication in replicon cells. One example of a suitable replicon assay is the liver cell-line Huh 7-based replicon assay described in Lohmann et al., 1999, Science 285:110-113. A specific example of this replicon assay which utilizes luciferase translation is provided in the Examples Section. In one embodiment of this assay, the amount of test prodrug that yields a 50% reduction in translation as compared to a control cell (IC50) may be determined.
The inhibitory activity of certain prodrugs of the invention, which may inhibit HCV translation or replication prior to metablism and/or are metabolized into active agents, was confirmed using an HCV replicon assay. The HCV replicon can include such features as the HCV 5′ untranslated region including the HCV IRES, the HCV 3′ untranslated region, selected HCV genes encoding HCV polypeptides, selectable markers, and a reporter gene such as luciferase, GFP, etc. In the assay, actively dividing 5-2 Luc replicon-comprising cells (obtained from Ralf Bartenschlager; see Lohmann et al., 1999, Science 285:110-113) were seeded at a density of between about 5,000 and 7,500 cells/well onto 96 well plates (about 90 μl of cells per well) and incubated at 37° C. and 5% CO2 for 24 hours. Then, the test prodrug (in a volume of about 10 μl) was added to the wells at various concentrations and the cells were incubated for an additional 24-48 hours before luciferase assay. The media was aspirated from each well and Bright-Glo (Promega, Madison, Wis.) luciferase assay reagents were added to each well according to the manufacturer's instructions. Briefly, the Bright-Glo reagent was diluted 1:1 with PBS and 100 μl of diluted reagent was added to each well. After 5 min of incubation at room temperature, luciferin emission was quantified with a luminometer. In this assay, the amount of test prodrug that yielded a 50% reduction in luciferase emission (IC50) was determined. This IC50 value may represent the antiviral activity of the prodrug itself, the activity of prodrug transformed into its active metabolized form, or a combination of the two.

[3] = tested on: HCV NS5A protein in 9-13 replicon cells; assay: Quantitative Western blot replicon assay (HEPC_REPLICON-ICWESTERN); type: cell-based, Hepatitis C virus (HCV); details: Hepatitis C virus, read-out: HEPC_REPLICON-ICWESTERN Result Value (IC50)
Description: Alternatively, the inhibitory activity of the metabolically active agents of the prodrugs can be confirmed using a quantitative Western immunoblot assay utilizing antibodies specific for HCV non-structural proteins, such as NS3, NS4A NS5A and NS5B. In one embodiment of this assay, replicon cells are treated with varying concentrations of test prodrug to determine the concentration of the metabolically active agent of the test prodrug that yields a 50% reduction in the amount of a non-structural protein produced as compared to a control sample (IC50). A single non-structural protein may be quantified or multiple non-structural proteins may be quantified. Antibodies suitable for carrying out such immunoblot assays are available commercially (e.g., from BIODESIGN International, Saco, Me.).
Certain prodrugs of the invention, which may inhibit HCV translation or replication prior to metablism and/or are metabolized into active agents, were also tested for their ability to inhibit HCV replication using a quantitative Western blot analysis with antibodies specific for the HCV NS5A or other non-structural proteins. Actively dividing 9-13 replicon cells were seeded into 6-well plates at a density of 1×10^5 cells/well in a volume of 2 ml/well and incubated at 37° C. and 5% CO2 for 24 hours. Various concentrations of test prodrugs (in a volume of 10 ul) were added to the wells and the cells incubated for another 48 hours. Protein samples were prepared from the cultured cells, resolved on a SDS-PAGE gel and transferred to a nitrocellulose membrane. The membrane was blocked with 5% non-fat milk in PBS for 1 hour at room temperature. Primary antibody (anti NS5A antibody; BIODESIGN International, Saco, Me.) incubation was performed for 1 hour at room temperature, after which the membrane was washed 3 times (for 15 min per time) with PBST (PBS plus 0.1% Tween 20). Horseradish peroxidase conjugated secondary antibody incubation was performed for 1 hour at room temperature and the membrane was washed 3 times (for 15 min per time) with PBST. The membrane was then soaked in substrate solution (Pierce) and exposed to a film or quantified using an imager. In this assay, the amount of test prodrug that is believed to be transformed into an active agent under the given conditions that yielded a 50% reduction in the amount of NS5A protein translated as compared to a control sample (IC50) was determined.

[4] = 5-2 Luc replicon cells, 50% reduction in luciferase emission
[5] = 9-13 replicon cells, 50% reduction in NS5A protein

SMILES	IC50 [2, 4]	IC50 [3, 5]	further results
CCOP(=O)(CCN(C(=O)C(Cl)Cl)c1cccc(-c2cc(-c3c(Cl)cccc3Cl)no2)c1)OCC [Cpd. No. 1, Diethyl 2-(2,2-Dichloro-N-(3-(3-(2,6-dichlorophenyl)isoxazol-5-yl)phenyl)acetamido)ethylphosphonate]	–	–	AUC ([1]; in vivo): 176 ng·h/mL; IC50 [2]: > 20000 nM; IC50 [3]: 1000 to 20000 nM
COCN(C(=O)C(Cl)Cl)c1cccc(-c2cc(-c3c(Cl)cccc3Cl)no2)c1 [Cpd. No. 6, 2,2-Dichloro-N-(3-(3-(2,6-dichlorophenyl)isoxazol-5-yl)phenyl)-N-(methoxymethyl)acetamide]	< 1000 nM	< 1000 nM	AUC ([1]; portal vein blood): 98.3 ng·h/mL
N[C@H](C(=O)NCCN(C(=O)C(Cl)Cl)c1cccc(-c2cc(-c3c(Cl)cccc3Cl)no2)c1)c1ccccc1 [Cpd. No. 18, (S)-N-(2-(2-Amino-2-phenylacetamido)ethyl)-2,2-dichloro-N-(3-(3-(2,6-dichlorophenyl)isoxazol-5-yl)phenyl)acetamide]	–	> 20000 nM	AUC ([1]; portal vein blood): 627 ng·h/mL
CC(C)C(NC(=O)CNC(=O)OC(C)(C)C)C(=O)CCN(C(=O)C(Cl)Cl)c1ccnc(-c2cc(-c3c(Cl)cccc3Cl)no2)c1 (stereo not drawn) [Cpd. No. 49, tert-Butyl 2-(6-(2,2-Dichloro-N-(2-(3-(2,6-dichlorophenyl)isoxazol-5-yl)pyridin-4-yl)acetamido)-2-methyl-4-oxohexan-3-ylamino)-2-oxoethylcarbamate]	< 1000 nM	< 1000 nM	–
CC(C)C(NC(=O)CN)C(=O)CCN(C(=O)C(Cl)Cl)c1ccnc(-c2cc(-c3c(Cl)cccc3Cl)no2)c1 (stereo not drawn) [Cpd. No. 50, N-(4-(2-Aminoacetamido)-5-methyl-3-oxohexyl)-2,2-dichloro-N-(2-(3-(2,6-dichlorophenyl)isoxazol-5-yl)pyridin-4-yl)acetamide]	< 1000 nM	< 1000 nM	–
CCC(C)C(NC(=O)OC(C)(C)C)C(=O)NC(C(=O)CCN(C(=O)C(Cl)Cl)c1ccnc(-c2cc(-c3c(Cl)cccc3Cl)no2)c1)C(C)C (stereo not drawn) [Cpd. No. 51, tert-Butyl 1-(6-(2,2-Dichloro-N-(2-(3-(2,6-dichlorophenyl)isoxazol-5-yl)pyridin-4-yl)acetamido)-2-methyl-4-oxohexan-3-ylamino)-3-methyl-1-oxopentan-2-ylcarbamate]	< 1000 nM	< 1000 nM	–
CCC(C)C(N)C(=O)NC(C(=O)CCN(C(=O)C(Cl)Cl)c1ccnc(-c2cc(-c3c(Cl)cccc3Cl)no2)c1)C(C)C (stereo not drawn) [Cpd. No. 52, 2-Amino-N-(6-(2,2-dichloro-N-(2-(3-(2,6-dichlorophenyl)isoxazol-5-yl)pyridin-4-yl)acetamido)-2-methyl-4-oxohexan-3-yl)-3-methylpentanamide]	< 1000 nM	< 1000 nM	–
CC(C)C(NC(=O)C1CC(O)CN1C(=O)OC(C)(C)C)C(=O)CCN(C(=O)C(Cl)Cl)c1ccnc(-c2cc(-c3c(Cl)cccc3Cl)no2)c1 (stereo not drawn) [Cpd. No. 53, tert-Butyl 2-(6-(2,2-Dichloro-N-(2-(3-(2,6-dichlorophenyl)isoxazol-5-yl)pyridin-4-yl)acetamido)-2-methyl-4-oxohexan-3-ylcarbamoyl)-4-hydroxypyrrolidine-1-carboxylate]	< 1000 nM	< 1000 nM	–
CC(C)C(NC(=O)C(CCC(=O)OC(C)(C)C)NC(=O)OC(C)(C)C)C(=O)CCN(C(=O)C(Cl)Cl)c1ccnc(-c2cc(-c3c(Cl)cccc3Cl)no2)c1 (stereo not drawn) [Cpd. No. 55, tert-Butyl 4-(tert-Butoxycarbonylamino)-5-(6-(2,2-dichloro-N-(2-(3-(2,6-dichlorophenyl)isoxazol-5-yl)pyridin-4-yl)acetamido)-2-methyl-4-oxohexan-3-ylamino)-5-oxopentanoate]	< 1000 nM	1000 to 20000 nM	–
CC(C)OC(=O)OCN(C(=O)C(Cl)Cl)c1ccnc(-c2cc(-c3c(Cl)cccc3Cl)no2)c1 [Cpd. No. 57, (2,2-Dichloro-N-(2-(3-(2,6-dichlorophenyl)isoxazol-5-yl)pyridin-4-yl)acetamido)methyl Isopropyl Carbonate]	1000 to 20000 nM	1000 to 20000 nM	–
CC(C)[C@@H](NC(=O)OCN(C(=O)C(Cl)Cl)c1ccnc(-c2cc(-c3c(Cl)cccc3Cl)no2)c1)C(=O)OC(C)(C)C [Cpd. No. 58, (R)-tert-Butyl 2-(((2,2-Dichloro-N-(2-(3-(2,6-dichlorophenyl)isoxazol-5-yl)pyridin-4-yl)acetamido)methoxy)carbonylamino)-3-methylbutanoate]	> 20000 nM	1000 to 20000 nM	–
CCC(C)C(N)C(=O)CCN(C(=O)C(Cl)Cl)c1ccnc(-c2cc(-c3c(Cl)cccc3Cl)no2)c1 (stereo not drawn) [Cpd. No. 59, N-(4-Amino-5-methyl-3-oxoheptyl)-2,2-dichloro-N-(2-(3-(2,6-dichlorophenyl)isoxazol-5-yl)pyridin-4-yl)acetamide]	< 1000 nM	< 1000 nM	–
NCC(=O)CCN(C(=O)C(Cl)Cl)c1ccnc(-c2cc(-c3c(Cl)cccc3Cl)no2)c1 [Cpd. No. 60, N-(4-Amino-3-oxobutyl)-2,2-dichloro-N-(2-(3-(2,6-dichlorophenyl)isoxazol-5-yl)pyridin-4-yl)acetamide]	< 1000 nM	1000 to 20000 nM	–
O=C(Nc1ccnc(-c2cc(-c3c(Cl)cccc3Cl)no2)c1)C(Cl)Cl [Cpd. No. 64]	–	–	Active parent compound concentrations versus dose ([1]; oral, portal vein): increase in a linear fashion with dose; Absorption and hydrolysis of the orally administered parent compound ([1]; oral, portal vein plasma): well absorbed but is extensively hydrolyzed to the inactive metabolite

From patent US7498353B2, “Heterocyclic anti-viral compounds comprising metabolizable moieties and their uses” (priority 2005, dated 2009)
